Calls of active or inactive are those of the source. No cut-off for these calls is given here.
Experiments:
[1] = tested on: C6; experiment: Cytotoxicity against rat C6 cells assessed as cell proliferation at 1.5 mM after 24 hrs by MTT assay relative to control; assay type: functional; conditions: C6, 24 h, read-out: Activity
[2] = tested on: C6; experiment: Cytotoxicity against rat C6 cells assessed as cell proliferation at 2 mM after 24 hrs by MTT assay relative to control; assay type: functional; conditions: C6, 24 h, read-out: Activity
[3] = tested on: C6; experiment: Cell cycle arrest in rat C6 cells assessed as accumulation at G1 phase at 1.5 mM after 72 hrs by propidium iodide staining based flow cytometry (reference value: 63.97%); assay type: functional
[4] = Selectivity ratio of IC50 for recombinant rat nNOS to IC50 for recombinant mouse iNOS
[5] = tested on: C6; experiment: Cytotoxicity against rat C6 cells assessed as cell proliferation at 1 mM after 24 hrs by MTT assay relative to control; assay type: functional; conditions: C6, 24 h, read-out: Activity
[6] = target: Nitric oxide synthase, inducible (Rattus norvegicus) (UniProt Q06518); experiment: Ex vivo inhibition of iNOS in mesenteric vascular arteries isolated from LPS-induced septic shock Sprague-Dawley rat model assessed as increase in noradrenaline-mediated vasoconstriction by measuring changes in perfusion pressure at 0.06 uM preincubated for 30 mins followed by noradrenaline treatment
Nitric oxide synthase, inducible (Rattus norvegicus), sequence (Q06518 whole entry, the tested form may be a part): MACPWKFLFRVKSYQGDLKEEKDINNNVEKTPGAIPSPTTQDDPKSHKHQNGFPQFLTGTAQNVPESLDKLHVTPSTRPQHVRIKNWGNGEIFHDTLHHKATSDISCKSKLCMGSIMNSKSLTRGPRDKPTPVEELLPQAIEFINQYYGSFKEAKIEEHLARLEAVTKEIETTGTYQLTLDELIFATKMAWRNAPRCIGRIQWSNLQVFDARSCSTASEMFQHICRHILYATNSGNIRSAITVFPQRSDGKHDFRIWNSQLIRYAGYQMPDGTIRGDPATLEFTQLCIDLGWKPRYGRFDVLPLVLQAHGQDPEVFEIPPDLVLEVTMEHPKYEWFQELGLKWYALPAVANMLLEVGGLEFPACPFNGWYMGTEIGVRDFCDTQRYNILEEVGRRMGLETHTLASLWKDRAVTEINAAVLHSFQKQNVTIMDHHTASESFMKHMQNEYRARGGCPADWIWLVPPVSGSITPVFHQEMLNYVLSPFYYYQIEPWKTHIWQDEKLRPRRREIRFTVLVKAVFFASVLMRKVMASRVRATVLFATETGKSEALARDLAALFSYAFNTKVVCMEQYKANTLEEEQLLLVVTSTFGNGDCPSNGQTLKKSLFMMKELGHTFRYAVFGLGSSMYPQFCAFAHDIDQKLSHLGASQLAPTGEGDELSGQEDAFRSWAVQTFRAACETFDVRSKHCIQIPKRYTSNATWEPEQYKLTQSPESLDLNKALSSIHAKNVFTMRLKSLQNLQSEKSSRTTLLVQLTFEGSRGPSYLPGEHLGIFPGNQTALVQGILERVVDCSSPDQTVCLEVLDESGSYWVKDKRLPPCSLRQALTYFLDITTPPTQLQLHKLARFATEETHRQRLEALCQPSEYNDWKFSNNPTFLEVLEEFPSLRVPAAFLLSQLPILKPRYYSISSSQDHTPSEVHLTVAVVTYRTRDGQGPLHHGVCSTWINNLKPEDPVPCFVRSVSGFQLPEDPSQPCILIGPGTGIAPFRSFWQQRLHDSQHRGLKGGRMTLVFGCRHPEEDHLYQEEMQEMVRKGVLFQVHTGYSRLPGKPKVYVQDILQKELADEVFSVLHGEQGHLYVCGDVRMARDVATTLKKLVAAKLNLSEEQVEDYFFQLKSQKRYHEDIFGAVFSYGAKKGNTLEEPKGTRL

[7] = Cytotoxicity against rat CTX/TNA2 cells assessed as inhibition of cell proliferation at 0.25 to 2 mM up to 72 hrs by MTT assay; assay type: cell-based; conditions: 2000 µM
[8] = tested on: C6; experiment: Cytotoxicity against rat C6 cells assessed as cell proliferation at 0.25 mM after 48 hrs by MTT assay relative to control; assay type: functional; conditions: C6, 48 h, read-out: Activity
[9] = tested on: C6; experiment: Cytotoxicity against rat C6 cells assessed as cell proliferation at 1 mM after 72 hrs by MTT assay relative to control; assay type: functional; conditions: C6, 72 h, read-out: Activity
[10] = Half life in pH 2 HCl after 24 hrs by HPLC analysis; assay type: physicochemical; conditions: HCl solution, pH 2, pH 2
[11] = Cytotoxicity against rat CTX/TNA2 cells assessed as cell proliferation at 1 mM after 24 hrs by MTT assay relative to control; assay type: cell-based; conditions: read-out: Activity
[12] = tested on: C6; experiment: Cytotoxicity against rat C6 cells assessed as inhibition of cell proliferation after 24 to 48 hrs by MTT assay; assay type: functional, cell-based
[13] = Half life in pH 7.4 PBS buffer after 24 hrs by HPLC analysis; assay type: physicochemical; conditions: pH 7.4, pH 7.4
[14] = Selectivity index, ratio of IC50 for recombinant bovine eNOS to IC50 for recombinant mouse iNOS
[15] = tested on: C6; experiment: Cytotoxicity against rat C6 cells assessed as LDH release at 0.75 mM after 72 hrs by CytoTox96 non-radioactive assay (reference value: 5.41%); assay type: functional
[16] = Half life in pH 9 NaOH solution after 24 hrs by HPLC analysis; assay type: physicochemical; conditions: pH 9, pH 9
[17] = tested on: C6; experiment: Cell cycle arrest in rat C6 cells assessed as accumulation at S phase at 1.5 mM after 72 hrs by propidium iodide staining based flow cytometry (reference value: 22.64%); assay type: functional
[18] = tested on: C6; experiment: Cytotoxicity against rat C6 cells assessed as cell proliferation at 1.5 mM after 72 hrs by MTT assay relative to control; assay type: functional; conditions: C6, 72 h, read-out: Activity
[19] = tested on: C6; experiment: Cytotoxicity against rat C6 cells assessed as LDH release at 1.5 mM after 72 hrs by CytoTox96 non-radioactive assay (reference value: 5.41%); assay type: functional
[20] = Half life in human plasma by HPLC analysis; assay type: ADME, cell-free
[21] = tested on: C6; experiment: Cytotoxicity against rat C6 cells assessed as LDH release at 2 mM after 72 hrs by CytoTox96 non-radioactive assay (reference value: 5.41%); assay type: functional
[22] = target: Nitric oxide synthase 1 (Rattus norvegicus, UniProt P29476); experiment: Inhibition of recombinant rat nNOS using [3H]L-arginine as substrate preincubated for 15 mins followed by NADPH addition measured after 20 mins in presence of FMN/FAD by liquid scintillation counting method
Nitric oxide synthase 1, sequence (P29476 whole entry): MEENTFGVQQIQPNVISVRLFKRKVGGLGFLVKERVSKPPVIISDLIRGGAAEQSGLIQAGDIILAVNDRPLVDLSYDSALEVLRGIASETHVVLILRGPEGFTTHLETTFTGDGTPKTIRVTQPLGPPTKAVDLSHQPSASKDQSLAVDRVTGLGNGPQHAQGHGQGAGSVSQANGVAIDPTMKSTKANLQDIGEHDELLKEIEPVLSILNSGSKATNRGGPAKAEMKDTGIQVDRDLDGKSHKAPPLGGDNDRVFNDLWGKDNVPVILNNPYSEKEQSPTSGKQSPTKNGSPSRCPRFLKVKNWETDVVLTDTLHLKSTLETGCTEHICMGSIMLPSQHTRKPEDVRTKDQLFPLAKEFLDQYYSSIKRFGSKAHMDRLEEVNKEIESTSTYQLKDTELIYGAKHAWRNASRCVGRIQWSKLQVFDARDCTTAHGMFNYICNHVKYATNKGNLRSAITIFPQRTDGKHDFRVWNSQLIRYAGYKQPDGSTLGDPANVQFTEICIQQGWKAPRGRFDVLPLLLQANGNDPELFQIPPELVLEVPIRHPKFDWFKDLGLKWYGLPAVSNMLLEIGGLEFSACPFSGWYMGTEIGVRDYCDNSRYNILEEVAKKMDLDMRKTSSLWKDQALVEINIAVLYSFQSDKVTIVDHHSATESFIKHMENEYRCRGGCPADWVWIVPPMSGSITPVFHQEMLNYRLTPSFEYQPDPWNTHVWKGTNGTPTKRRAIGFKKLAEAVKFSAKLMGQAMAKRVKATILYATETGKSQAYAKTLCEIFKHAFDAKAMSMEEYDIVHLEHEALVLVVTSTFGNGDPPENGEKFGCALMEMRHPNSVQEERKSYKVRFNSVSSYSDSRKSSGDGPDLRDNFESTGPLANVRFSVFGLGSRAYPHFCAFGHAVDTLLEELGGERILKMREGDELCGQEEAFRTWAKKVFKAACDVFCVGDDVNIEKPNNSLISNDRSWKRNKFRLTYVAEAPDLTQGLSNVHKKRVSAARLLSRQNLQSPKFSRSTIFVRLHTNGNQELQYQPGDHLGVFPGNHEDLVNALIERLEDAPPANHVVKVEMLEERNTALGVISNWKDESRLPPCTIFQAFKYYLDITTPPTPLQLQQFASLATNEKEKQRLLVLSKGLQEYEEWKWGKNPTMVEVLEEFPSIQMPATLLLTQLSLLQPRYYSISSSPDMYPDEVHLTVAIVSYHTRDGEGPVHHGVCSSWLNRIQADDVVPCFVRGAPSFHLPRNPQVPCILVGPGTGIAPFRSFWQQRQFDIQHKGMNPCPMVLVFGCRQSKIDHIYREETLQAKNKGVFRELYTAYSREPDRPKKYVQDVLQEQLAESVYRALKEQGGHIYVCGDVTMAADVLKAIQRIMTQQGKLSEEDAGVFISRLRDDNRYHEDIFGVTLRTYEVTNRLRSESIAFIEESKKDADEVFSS

[23] = tested on: C6; experiment: Cytotoxicity against rat C6 cells assessed as cell proliferation at 2 mM after 72 hrs by MTT assay relative to control; assay type: functional; conditions: C6, 72 h, read-out: Activity
[24] = Cytotoxicity against rat CTX/TNA2 cells assessed as cell proliferation at 1 mM after 48 hrs by MTT assay relative to control; assay type: cell-based; conditions: read-out: Activity
[25] = tested on: C6; experiment: Cytotoxicity against rat C6 cells assessed as LDH release at 0.5 mM after 72 hrs by CytoTox96 non-radioactive assay (reference value: 5.41%); assay type: functional
[26] = target: T1, Nitric oxide synthase, inducible (Mus musculus, UniProt P29477); experiment: Inhibition of recombinant mouse iNOS using [3H]L-arginine as substrate preincubated for 15 mins followed by NADPH addition measured after 20 mins in presence of FMN/FAD by liquid scintillation counting method
T1 sequence (P29477 whole entry): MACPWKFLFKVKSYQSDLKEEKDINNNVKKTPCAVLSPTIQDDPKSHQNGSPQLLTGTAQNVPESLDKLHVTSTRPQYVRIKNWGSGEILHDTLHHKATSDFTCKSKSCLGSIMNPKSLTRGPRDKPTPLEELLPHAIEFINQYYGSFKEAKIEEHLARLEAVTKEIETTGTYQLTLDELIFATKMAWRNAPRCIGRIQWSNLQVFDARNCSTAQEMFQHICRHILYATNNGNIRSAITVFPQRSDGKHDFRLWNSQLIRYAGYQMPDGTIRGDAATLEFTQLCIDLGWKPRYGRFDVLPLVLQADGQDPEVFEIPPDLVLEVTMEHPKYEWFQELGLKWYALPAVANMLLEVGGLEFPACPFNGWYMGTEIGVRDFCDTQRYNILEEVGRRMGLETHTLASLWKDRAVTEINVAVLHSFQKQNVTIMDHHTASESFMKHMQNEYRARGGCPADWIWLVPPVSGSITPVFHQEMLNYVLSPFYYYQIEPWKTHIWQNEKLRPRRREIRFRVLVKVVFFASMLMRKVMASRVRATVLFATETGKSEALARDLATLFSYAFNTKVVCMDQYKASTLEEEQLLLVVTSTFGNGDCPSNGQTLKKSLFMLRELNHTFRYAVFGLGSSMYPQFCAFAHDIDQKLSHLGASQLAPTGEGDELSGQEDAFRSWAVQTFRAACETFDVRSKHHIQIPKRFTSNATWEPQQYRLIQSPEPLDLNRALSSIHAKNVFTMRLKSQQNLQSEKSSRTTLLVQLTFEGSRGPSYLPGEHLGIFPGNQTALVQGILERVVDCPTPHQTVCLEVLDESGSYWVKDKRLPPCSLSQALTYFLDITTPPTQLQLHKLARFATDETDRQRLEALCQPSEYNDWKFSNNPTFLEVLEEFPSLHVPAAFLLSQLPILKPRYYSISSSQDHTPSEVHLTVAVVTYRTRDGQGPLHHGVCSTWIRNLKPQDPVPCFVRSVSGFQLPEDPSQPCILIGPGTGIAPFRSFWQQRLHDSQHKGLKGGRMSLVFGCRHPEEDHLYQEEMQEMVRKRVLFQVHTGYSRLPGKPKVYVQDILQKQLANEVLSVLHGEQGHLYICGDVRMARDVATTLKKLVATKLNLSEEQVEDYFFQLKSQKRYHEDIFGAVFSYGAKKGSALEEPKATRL

[27] = tested on: C6; experiment: Cytotoxicity against rat C6 cells assessed as LDH release at 1 mM after 72 hrs by CytoTox96 non-radioactive assay (reference value: 5.41%); assay type: functional

CC(=N)NCc1cccc(CNC(=O)[C@@H]2CCCN2)c1.Cl.Cl
growth at 1500 µM [1]: 114%
growth at 2000 µM [2]: ≤ 89.5%
Activity [3]: 71.79%
Ratio IC50 [4]: > 172
growth at 1000 µM [5]: 118%
inhibition [6]: Active
Activity [7]: Non-Toxic
growth at 250 µM [8]: 80.4%
growth at 1000 µM [9]: 77.5%
half-life [10]: > 24 h
viability at 24 h, 1000 µM [11]: 122%
inhibition [12]: Dose-dependent effect
half-life [13]: > 24 h
Ratio IC50 [14]: 4570
Activity [15]: 20.99%
half-life [16]: > 24 h
Activity [17]: 12.12%
growth at 1500 µM [18]: 63.2%
Activity [19]: 23.27%
half-life [20]: 11 h
Activity [21]: <=25.52%
IC50 [22]: > 10000 nM
growth at 2000 µM [23]: 55.2%
viability at 48 h, 1000 µM [24]: 125%
Activity [25]: 27.21%
IC50 [26]: 58 nM
Activity [27]: 16.78%
